Data published in US9375419B1 (priority 2014, dated 2016).

Columns and labels:
[1] = system: human Norovirus replicon (GT1, HG23 cell line); experiment: Primary anti-Norovirus assay, RNA hybridization (replicon); conditions: for Sl50 - CC50/EC50 / Sl90 - CC50/EC90: RNA hybridization (replicon), HG23 cells
[2] = system: human Norovirus replicon (GT1, HG23 cell line); experiment: Secondary anti-Norovirus assay, quantitative polymerase chain reaction (replicon); conditions: for Sl50 - CC50/EC50 / Sl90 - CC50/EC90: quantitative PCR (replicon), HG23 cells
Rift valley fever virus = format: cell-based
[3] = system: Venezuelan equine encephalalitis virus; format: cell-based
polio virus = format: cell-based
Human cytomegalovirus = format: cell-based
Hepatitis B virus = format: cell-based
tacaribe virus = format: cell-based
Herpes Simpex Virus 2 = format: cell-based
Yellow fever virus = format: cell-based
Herpes Simpex Virus 1 = format: cell-based
[4] = Neutral red (toxicity), secondary assay; conditions: human
Vaccina virus = format: cell-based
Adenorovirusirus-5 = format: cell-based
[5] = Cytotoxicity by neutral red dye uptake, primary assay; conditions: human
Hepatitis C virus = format: cell-based

SMILES: C[C@@]1(O)[C@H](O)[C@@H](CO)O[C@H]1n1ccc(N)nc1=O [2′C-methyl cytidine, reference compound]
- Sl50 - CC50/EC50 [1]: >48
- Sl90 - CC50/EC90 [1]: >16
- Sl50 - CC50/EC50 [2]: >50
- Sl90 - CC50/EC90 [2]: >17

SMILES: COc1c(C)cnc(Cn2cnc3c(Cl)cc(N)cc32)c1C [Compound 1, 4-Chloro-1-((4-methoxy-3,5-dimethylpyridin-2-yl)methyl)-1H-benzo[d]imidazo-6-amine]
- antiviral activity (Rift valley fever virus): did not have activity
- antiviral activity [3]: did not have activity
- antiviral activity (polio virus): did not have activity
- antiviral activity (Human cytomegalovirus): did not have activity
- antiviral activity (Hepatitis B virus): did not have activity
- antiviral activity (tacaribe virus): did not have activity
- antiviral activity (Herpes Simpex Virus 2): did not have activity
- antiviral activity (Yellow fever virus): did not have activity
- antiviral activity (Herpes Simpex Virus 1): did not have activity
- CC50 at 3 day [4]: > 50 µM
- EC50 ([1]; Norovirus, GT1, HG23, in Homo sapiens, 72 h, read-out: EC50 - compound concentration that reduces viral replication by 50%): 0.617 µM
- EC90 ([1]; Norovirus, GT1, HG23, in Homo sapiens, 72 h, read-out: EC90 - compound concentration that reduces viral replication by 90%): 7.5 µM
- Sl50 - CC50/EC50 [1]: >162
- Sl90 - CC50/EC90 [1]: >13
- activity against Norovirus in the primary screen ([1]; primary screen): active
- EC50 ([2]; Norovirus, GT1, HG23, in Homo sapiens, read-out: EC50 - compound concentration that reduces viral replication by 50%): 1.4 µM
- EC90 ([2]; Norovirus, GT1, HG23, in Homo sapiens, read-out: EC90 - compound concentration that reduces viral replication by 90%): 8.5 µM
- Sl50 - CC50/EC50 [2]: >36
- Sl90 - CC50/EC90 [2]: >6
- activity against Norovirus, data confirmed in the secondary assay ([2]; secondary assay): confirmed
- antiviral activity (Vaccina virus): did not have activity
- antiviral activity (Adenorovirusirus-5): did not have activity
- CC50 at 3 day [5]: > 100 µM
- antiviral activity (Hepatitis C virus): did not have activity
